Results published in patent US11780845B2 (Relay Therapeutics, Inc., priority 2019, dated 2023).
pIC50: −log10 of the molar value.

target: FGFR2 (Homo sapiens (Human), UniProt P21802); test: FGFR2 Biochemical Caliper Assay; settings: not given
Description: Compounds of the present invention were also tested in a FGFR2 Biochemical Caliper Assay. Compounds were prepared in 10 mM DMSO solution and serially diluted into 11 concentrations by 3-fold dilution. […] 5 uL of ATP solution (100 uM) was added to start the reaction and the plate was incubated for 90 minutes, then 70 uL of stopping buffer (0.5M EDTA) was added to terminate the reaction. Each well was analyzed using EZ reader.

FGFR2, sequence (P21802 22-821): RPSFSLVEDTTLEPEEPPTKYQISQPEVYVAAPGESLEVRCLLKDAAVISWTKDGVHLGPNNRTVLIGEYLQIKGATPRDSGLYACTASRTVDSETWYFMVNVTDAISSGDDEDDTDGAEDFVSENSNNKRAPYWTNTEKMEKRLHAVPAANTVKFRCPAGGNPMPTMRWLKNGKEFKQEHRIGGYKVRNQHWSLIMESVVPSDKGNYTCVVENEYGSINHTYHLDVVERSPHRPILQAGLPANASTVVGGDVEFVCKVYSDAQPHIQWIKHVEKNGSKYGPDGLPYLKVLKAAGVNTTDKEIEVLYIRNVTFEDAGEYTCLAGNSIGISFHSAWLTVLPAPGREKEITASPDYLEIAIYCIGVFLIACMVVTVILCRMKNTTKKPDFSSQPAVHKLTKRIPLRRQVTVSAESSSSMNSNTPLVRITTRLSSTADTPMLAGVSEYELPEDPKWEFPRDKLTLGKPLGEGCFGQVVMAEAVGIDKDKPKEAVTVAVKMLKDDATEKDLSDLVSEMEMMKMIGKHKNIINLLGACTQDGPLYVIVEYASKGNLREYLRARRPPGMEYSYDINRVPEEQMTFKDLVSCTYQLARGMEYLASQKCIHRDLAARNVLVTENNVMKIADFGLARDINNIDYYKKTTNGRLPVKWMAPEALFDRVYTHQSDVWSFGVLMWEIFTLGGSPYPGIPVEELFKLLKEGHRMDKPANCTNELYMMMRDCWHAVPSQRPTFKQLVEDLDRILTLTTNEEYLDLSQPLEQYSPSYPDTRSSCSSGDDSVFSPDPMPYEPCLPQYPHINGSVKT

pIC50 | Structure (SMILES)
> 7.00 | C=C(C)C(=O)Nc1ccc(-c2c(-c3ccc(Oc4cccc(C)n4)cc3F)c3c(N)ncnc3n2C)cc1 [Example 442]
> 7.00 | C=CC(=O)Nc1ccc(-c2c(-c3ccc(Oc4ccn(C)n4)cc3)c3c(N)ncnc3n2C)cc1 [Example 276]
6.00 to 6.60 | C=C(C)C(=O)Nc1ccc(-c2c(-c3ccc(C(=O)NCC#N)cc3)c3c(N)ncnc3n2C)cc1 [Example 337]
> 7.00 | C=C(C)C(=O)Nc1ccc(-c2c(-c3ccc(Oc4cccc(C)n4)cc3)c3c(N)ncnc3n2CCOC)cc1 [Example 370]
> 7.00 | C=C(C)C(=O)Nc1ccc(-c2c(-c3ccc(C(=O)NCC4(OC)CCC4)cc3)c3c(N)ncnc3n2C)cc1 [Example 351]
6.00 to 6.60 | C=C(C)C(=O)Nc1ccc(-c2c(-c3ccc(C(=O)N4CC5CCC4CO5)cc3)c3c(N)ncnc3n2C)cc1 (stereo not shown) [Example 238]
> 7.00 | C=C(C)C(=O)Nc1ccc(-c2c(-c3ccc(C(=O)N4CC5CC4C5)cc3)c3c(N)ncnc3n2C)cc1 [Example 272]
> 7.00 | C=CC(=O)N1CCC(c2c(-c3ccc(-c4ncc[nH]4)cc3)c3c(N)ncnc3n2C)C1 (stereo not shown) [Example 765]
6.00 to 6.60 | C=CC(=O)N1CC[C@H](c2c(-c3ccc(Oc4ncccn4)cc3)c3c(N)ncnc3n2C)C1 (single isomer, unassigned) [Example 698]
> 7.00 | C=C(C)C(=O)Nc1ccc(-c2c(-c3ccc(Oc4cccc(C)n4)cc3)c3c(N)ncnc3n2CC)cc1 [Example 83]
> 7.00 | C=C(C)C(=O)Nc1ccc(-c2c(-c3ccc(C(=O)NCC(F)(F)F)cc3)c3c(N)ncnc3n2C)cc1 [Example 248]
6.00 to 6.60 | C/C(=C\CN(C)C)C(=O)N1CCC(n2cc(-c3c(-c4ccc(Oc5cccc(C)n5)cc4)c4c(N)ncnc4n3C)cn2)CC1 [Example 655]
> 7.00 | C=C(C)C(=O)Nc1ccc(-c2c(-c3ccc(C(=O)NCC4CCC4)c(F)c3)c3c(N)ncnc3n2C)nc1 [Example 589]
> 7.00 | C=C(C)C(=O)Nc1ccc(-c2c(-c3ccc(Oc4nccc(C)n4)c(F)c3)c3c(N)ncnc3n2C)c(C(F)F)c1 [Example 526]
4.00 to 6.00 | C=CC(=O)N1CCC(c2c(-c3ccc(C(=O)N4CCC4)c(F)c3)c3c(N)ncnc3n2C)C1 (stereo not shown) [Example 727]
4.00 to 6.00 | C=C(C)C(=O)Nc1ccc(-c2c(-c3ccc(C(=O)NCc4ccn(C)n4)cc3)c3c(N)ncnc3n2C)cc1 [Example 383]
6.00 to 6.60 | C=C(C)C(=O)Nc1ccc(-c2c(-c3ccc(S(=O)(=O)CCC(F)(F)F)cc3)c3c(N)ncnc3n2C)cc1 [Example 315]
> 7.00 | C=C(C)C(=O)Nc1ccc(-c2c(-c3ccc(Oc4nccc(C)n4)c(OC)c3)c3c(N)ncnc3n2C)c(F)c1 [Example 444]
> 7.00 | C=C(C)C(=O)Nc1ccc(-c2c(-c3ccc(Oc4cccc(C)n4)c(OC)c3)c3c(N)ncnc3n2C)cc1 [Example 4]
> 7.00 | CN(C)C/C=C/C(=O)Nc1ccc(-c2c(-c3ccc(C(=O)N4CCCC4)cc3)c3c(N)ncnc3n2C)cc1 [Example 206]
> 7.00 | C=C(C)C(=O)Nc1ccc(-c2c(-c3ccc(Oc4nccc(C)n4)c(F)c3)c3c(N)ncnc3n2CCO)cc1 [Example 490]
4.00 to 6.00 | C=C(C)C(=O)Nc1ccc(-c2c(-c3ccc(S(=O)(=O)NC4CCCC4O)cc3)c3c(N)ncnc3n2C)cc1 (stereo not shown) [Example 309]
6.00 to 6.60 | C=C(C)C(=O)Nc1ccc(-c2c(-c3ccc(C(=O)N4CCCC4)cc3)c3c(N)ncnc3n2C)cc1F [Example 215]
> 7.00 | C=CC(=O)N1CCC(n2ncc(-c3c(-c4ccc(Oc5cccc(C)n5)c(OC)c4)c4c(N)ncnc4n3C)c2C)CC1 [Example 673]
4.00 to 6.00 | C=C(C)C(=O)Nc1ccc(-c2c(-c3ccc(C(=O)N(C)Cc4nnc(C)o4)cc3)c3c(N)ncnc3n2C)cc1 [Example 374]
> 7.00 | C=C(C)C(=O)Nc1ccc(-c2c(-c3ccc(Oc4ncc(F)cn4)cc3)c3c(N)ncnc3n2C)c(F)c1 [Example 427]
> 7.00 | C=C(C)C(=O)Nc1ccc(-c2c(-c3ccc(C(=O)NCC4CCC4)cc3)c3c(N)ncnc3n2C)cc1 [Example 381]
6.00 to 6.60 | Cc1cccc(Oc2ccc(-c3c(-c4ccc(NC(=O)C(C)C)cc4)n(C)c4ncnc(N)c34)cc2)n1 [Example 70]
4.00 to 6.00 | C=CC(=O)N1CCC(c2c(-c3ccc(OCCOC)cc3)c3c(N)ncnc3n2C)C1 (stereo not shown) [Example 717]

system: SNU16 cells; test: SNU16 Cancer Cell Line Proliferation Assay; type: cell-based; settings: Homo sapiens; SNU-16 cells
How it was run: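 Proliferation read-out: CellTiter Glo chemiluminescence after 96 h compound exposure. Test compounds, serially diluted 3-fold over 11 points from a 10 mM DMSO stock, were added to SNU16 cells plated 24 h earlier at 37 degrees.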

pIC50 | Structure (SMILES)
≥ 7.00 | C=C(C)C(=O)Nc1ccc(-c2c(-c3ccc(Oc4cccc(C)n4)cc3F)c3c(N)ncnc3n2C)cc1 [Example 442]
≥ 7.00 | C=CC(=O)Nc1ccc(-c2c(-c3ccc(Oc4ccn(C)n4)cc3)c3c(N)ncnc3n2C)cc1 [Example 276]
6.00 to 6.60 | C=C(C)C(=O)Nc1ccc(-c2c(-c3ccc(C(=O)NCC#N)cc3)c3c(N)ncnc3n2C)cc1 [Example 337]
≥ 7.00 | C=C(C)C(=O)Nc1ccc(-c2c(-c3ccc(Oc4cccc(C)n4)cc3)c3c(N)ncnc3n2CCOC)cc1 [Example 370]
≥ 7.00 | C=C(C)C(=O)Nc1ccc(-c2c(-c3ccc(C(=O)NCC4(OC)CCC4)cc3)c3c(N)ncnc3n2C)cc1 [Example 351]
6.00 to 6.60 | C=C(C)C(=O)Nc1ccc(-c2c(-c3ccc(C(=O)N4CC5CCC4CO5)cc3)c3c(N)ncnc3n2C)cc1 (stereo not shown) [Example 238]
≥ 7.00 | C=C(C)C(=O)Nc1ccc(-c2c(-c3ccc(C(=O)N4CC5CC4C5)cc3)c3c(N)ncnc3n2C)cc1 [Example 272]
4.00 to 6.00 | C=CC(=O)N1CCC(c2c(-c3ccc(-c4ncc[nH]4)cc3)c3c(N)ncnc3n2C)C1 (stereo not shown) [Example 765]
6.60 to 7.00 | C=CC(=O)N1CC[C@H](c2c(-c3ccc(Oc4ncccn4)cc3)c3c(N)ncnc3n2C)C1 (single isomer, unassigned) [Example 698]
≥ 7.00 | C=C(C)C(=O)Nc1ccc(-c2c(-c3ccc(Oc4cccc(C)n4)cc3)c3c(N)ncnc3n2CC)cc1 [Example 83]
≥ 7.00 | C=C(C)C(=O)Nc1ccc(-c2c(-c3ccc(C(=O)NCC(F)(F)F)cc3)c3c(N)ncnc3n2C)cc1 [Example 248]
4.00 to 6.00 | C/C(=C\CN(C)C)C(=O)N1CCC(n2cc(-c3c(-c4ccc(Oc5cccc(C)n5)cc4)c4c(N)ncnc4n3C)cn2)CC1 [Example 655]
≥ 7.00 | C=C(C)C(=O)Nc1ccc(-c2c(-c3ccc(C(=O)NCC4CCC4)c(F)c3)c3c(N)ncnc3n2C)nc1 [Example 589]
≥ 7.00 | C=C(C)C(=O)Nc1ccc(-c2c(-c3ccc(Oc4nccc(C)n4)c(F)c3)c3c(N)ncnc3n2C)c(C(F)F)c1 [Example 526]
4.00 to 6.00 | C=CC(=O)N1CCC(c2c(-c3ccc(C(=O)N4CCC4)c(F)c3)c3c(N)ncnc3n2C)C1 (stereo not shown) [Example 727]
6.00 to 6.60 | C=C(C)C(=O)Nc1ccc(-c2c(-c3ccc(C(=O)NCc4ccn(C)n4)cc3)c3c(N)ncnc3n2C)cc1 [Example 383]
6.00 to 6.60 | C=C(C)C(=O)Nc1ccc(-c2c(-c3ccc(S(=O)(=O)CCC(F)(F)F)cc3)c3c(N)ncnc3n2C)cc1 [Example 315]
≥ 7.00 | C=C(C)C(=O)Nc1ccc(-c2c(-c3ccc(Oc4nccc(C)n4)c(OC)c3)c3c(N)ncnc3n2C)c(F)c1 [Example 444]
≥ 7.00 | C=C(C)C(=O)Nc1ccc(-c2c(-c3ccc(Oc4cccc(C)n4)c(OC)c3)c3c(N)ncnc3n2C)cc1 [Example 4]
6.60 to 7.00 | CN(C)C/C=C/C(=O)Nc1ccc(-c2c(-c3ccc(C(=O)N4CCCC4)cc3)c3c(N)ncnc3n2C)cc1 [Example 206]
≥ 7.00 | C=C(C)C(=O)Nc1ccc(-c2c(-c3ccc(Oc4nccc(C)n4)c(F)c3)c3c(N)ncnc3n2CCO)cc1 [Example 490]
6.00 to 6.60 | C=C(C)C(=O)Nc1ccc(-c2c(-c3ccc(S(=O)(=O)NC4CCCC4O)cc3)c3c(N)ncnc3n2C)cc1 (stereo not shown) [Example 309]
6.00 to 6.60 | C=C(C)C(=O)Nc1ccc(-c2c(-c3ccc(C(=O)N4CCCC4)cc3)c3c(N)ncnc3n2C)cc1F [Example 215]
≥ 7.00 | C=CC(=O)N1CCC(n2ncc(-c3c(-c4ccc(Oc5cccc(C)n5)c(OC)c4)c4c(N)ncnc4n3C)c2C)CC1 [Example 673]
6.00 to 6.60 | C=C(C)C(=O)Nc1ccc(-c2c(-c3ccc(C(=O)N(C)Cc4nnc(C)o4)cc3)c3c(N)ncnc3n2C)cc1 [Example 374]
≥ 7.00 | C=C(C)C(=O)Nc1ccc(-c2c(-c3ccc(Oc4ncc(F)cn4)cc3)c3c(N)ncnc3n2C)c(F)c1 [Example 427]
≥ 7.00 | C=C(C)C(=O)Nc1ccc(-c2c(-c3ccc(C(=O)NCC4CCC4)cc3)c3c(N)ncnc3n2C)cc1 [Example 381]
6.00 to 6.60 | Cc1cccc(Oc2ccc(-c3c(-c4ccc(NC(=O)C(C)C)cc4)n(C)c4ncnc(N)c34)cc2)n1 [Example 70]
6.00 to 6.60 | C=CC(=O)N1CCC(c2c(-c3ccc(OCCOC)cc3)c3c(N)ncnc3n2C)C1 (stereo not shown) [Example 717]
